From article PMC7914897, “Cytotoxic Potential of a-Azepano- and 3-Amino-3,4-SeCo-Triterpenoids” (International Journal of Molecular Sciences, 2021)

How the values were obtained:
UACC-257 (Melanoma) = assay: NCI-60 screen (SRB, 48 h); settings: Homo sapiens; for GI50: UACC-257; for IC (TGI): UACC-257, 48 h, read-out: TGI; for CC50: UACC-257, read-out: LC50
NSC lung cancer subpanel = assay: NCI-60 screen, subpanel; settings: Homo sapiens; for IC (TGI): 48 h, read-out: TGI MG_MID; for GI50: read-out: GI50 MG_MID; for CC50: read-out: LC50 MG_MID
HCC-2998 (Colon cancer) = assay: NCI-60 screen (SRB, 48 h); settings: for GI50 / IC (TGI) / CC50: Homo sapiens; for GI50: HCC 2998; for IC (TGI): HCC 2998, 48 h, read-out: TGI; for CC50: HCC 2998, read-out: LC50
786-0 (Renal cancer) = assay: NCI-60 screen (SRB, 48 h); settings: for GI50 / IC (TGI) / CC50: Homo sapiens; for GI50: 786-0; for IC (TGI): 786-0, 48 h, read-out: TGI; for CC50: 786-0, read-out: LC50
OVCAR-8 (Ovarian cancer) = assay: NCI-60 screen (SRB, 48 h); settings: Homo sapiens; for GI50: OVCAR-8; for IC (TGI): OVCAR-8, 48 h, read-out: TGI; for CC50: OVCAR-8, read-out: LC50
SF-268 (CNS cancer) = assay: NCI-60 screen (SRB, 48 h); settings: Homo sapiens; for GI50: SF-268; for IC (TGI): SF-268, 48 h, read-out: TGI; for CC50: SF-268, read-out: LC50
MCF-7 (breast carcinoma) = assay: SRB cytotoxicity assay, 72 h; assay type: cell-based, human; settings: Homo sapiens, MCF7; MCF-7, 72 h, cut-off 30 µM; read-out: EC50
Experimental: (§1) The cytotoxicity of compounds 1–20 was evaluated by means of a colorimetric sulforhodamine B (SRB) assay. For all compounds, the EC50 values were determined for the human tumor cell lines A375 (malignant melanoma), HT29 (colorectal carcinoma), MCF-7 (breast carcinoma), A2780 (ovarian carcinoma), FaDu (hypopharyngeal carcinoma), and NIH 3T3 (non-malignant mouse fibroblasts).
(§2) In short, exponentially growing cells were seeded into 96-well plates on day 0 at the appropriate cell densities to prevent confluence of the cells during the period of experiment. After 24 h, the cells were treated with serial dilutions of the compounds (0–30 µM) for 72 h. The final concentration of DMSO never exceeded 0.5%, which was non-toxic to the cells. After a 72 h treatment, the supernatant medium from the 96-well plates was discarded, and the cells were fixed with 10% TCA. For a thorough fixation, the plates were allowed to rest at 4 °C. After fixation, the cells were washed in a strip washer. The washing was done four times with water using alternate dispensing and aspiration procedures. The plates were then dyed with 100 µL of 0.4% SRB for about 20 min. After dying, the plates were washed with 1% acetic acid to remove the excess of the dye and allowed to air-dry overnight. Tris base solution (200 µL, 10 mM) was added to each well and absorbance was measured at λ = 570 nm (using a 96 well plate reader, Tecan Spectra, Crailsheim, Germany). The percentages of surviving cells relative to untreated controls were determined.

[1] = system: A2780 (ovarian carcinoma); assay: SRB cytotoxicity assay, 72 h; assay type: cell-based, human; settings: Homo sapiens; A2780, 72 h, cut-off 30 µM; read-out: EC50
Experimental: as §1, §2

[2] = system: FaDu (hypopharyngeal carcinoma); assay: SRB cytotoxicity assay, 72 h; assay type: cell-based, human; settings: Homo sapiens, cut-off 30 µM, read-out: EC50
Experimental: as §1, §2

[3] = system: HT29 (colorectal carcinoma); assay: SRB cytotoxicity assay, 72 h; assay type: cell-based, human; settings: Homo sapiens, HT-29; HT29, 72 h, cut-off 30 µM; read-out: EC50
Experimental: as §1, §2

[4] = system: A375 (malignant melanoma); assay: SRB cytotoxicity assay, 72 h; assay type: cell-based, human; settings: Homo sapiens, A-375, 72 h, A375, 72 h, cut-off 30 µM; read-out: EC50
Experimental: as §1, §2

[5] = system: NCI-H460 (NSC lung cancer); assay: NCI-60 screen (SRB, 48 h); settings: Homo sapiens; for GI50: NCI-H460; for IC (TGI): NCI-H460, 48 h, read-out: TGI; for CC50: NCI-H460, read-out: LC50
ACHN (Renal cancer) = assay: NCI-60 screen (SRB, 48 h); settings: for GI50 / IC (TGI) / CC50: Homo sapiens; for IC (TGI): 48 h, read-out: TGI; for CC50: read-out: LC50
OVCAR-4 (Ovarian cancer) = assay: NCI-60 screen (SRB, 48 h); assay type: cell-based; settings: Homo sapiens; for IC (TGI): OVCAR-4, 48 h; for GI50 / CC50: OVCAR-4; for GI50: read-out: GI50; for CC50: read-out: LC50 (the source's name)
BT-549 (Breast cancer) = assay: NCI-60 screen (SRB, 48 h); assay type: cell-based; settings: Homo sapiens; for GI50 / CC50: BT-549; for IC (TGI): BT-549, 48 h; for CC50: read-out: LC50 (the source's name)
Breast cancer subpanel = assay: NCI-60 screen, subpanel; settings: Homo sapiens; for IC (TGI): 48 h, read-out: TGI MG_MID; for GI50: read-out: GI50 MG_MID; for CC50: read-out: LC50 MG_MID
SK-MEL-5 (Melanoma) = assay: NCI-60 screen (SRB, 48 h); settings: Homo sapiens; for GI50: SK-MEL-5; for IC (TGI): SK-MEL-5, 48 h, read-out: TGI
MDA-MB-435 (Melanoma) = assay: NCI-60 screen (SRB, 48 h); assay type: cell-based; settings: for GI50 / IC (TGI) / CC50: Homo sapiens; for GI50 / CC50: MDA-MB-435; for IC (TGI): MDA-MB-435, 48 h, read-out: TGI; for CC50: read-out: LC50 (the source's name)
Melanoma subpanel = assay: NCI-60 screen, subpanel; settings: Homo sapiens; for IC (TGI): 48 h, read-out: TGI MG_MID; for GI50: read-out: GI50 MG_MID; for CC50: read-out: LC50 MG_MID
[6] = system: NCI-H522 (NSC lung cancer); assay: NCI-60 screen (SRB, 48 h); settings: Homo sapiens; for GI50: NCI-H522; for IC (TGI): NCI-H522, 48 h, read-out: TGI
[7] = system: MDA-MB-468 (Breast cancer); assay: cells; settings: Homo sapiens; for GI50: MDA-MB-468; for IC (TGI): MDA-MB-468, 48 h, read-out: TGI; for CC50: MDA-MB-468, read-out: LC50
[8] = system: NCI-H23 (NSC lung cancer); assay: NCI-60 screen (SRB, 48 h); settings: Homo sapiens; for GI50: NCI-H23; for IC (TGI): NCI-H23, 48 h, read-out: TGI; for CC50: NCI-H23, read-out: LC50
SF-539 (CNS cancer) = assay: NCI-60 screen (SRB, 48 h); settings: Homo sapiens; for GI50: SF-539; for IC (TGI): SF-539, 48 h, read-out: TGI; for CC50: SF-539, read-out: LC50

C=C(C)[C@@H]1CC[C@]2(C)[C@H](CC=C3[C@@H]4[C@@H](C)[C@H](C)CC[C@]4(CO)CC[C@]32C)[C@@]1(C)CCCN [Compound 19]
GI50 (UACC-257 (Melanoma)): 1.07 µM
IC (TGI) (UACC-257 (Melanoma)): 2.21 µM
CC50 (UACC-257 (Melanoma)): 4.68 µM
IC (TGI) (NSC lung cancer subpanel): 5.16 µM
GI50 (NSC lung cancer subpanel): 1.84 µM
CC50 (NSC lung cancer subpanel): 27 µM
Growth % of the Most Sensitive Cell Lines (HCC-2998 (Colon cancer); HCC-2998, 1 dose 10 µM): −93.35%
GI50 (HCC-2998 (Colon cancer)): 0.87 µM
IC (TGI) (HCC-2998 (Colon cancer)): 1.62 µM
CC50 (HCC-2998 (Colon cancer)): 3.02 µM
GI50 (786-0 (Renal cancer)): 0.84 µM
IC (TGI) (786-0 (Renal cancer)): 1.58 µM
CC50 (786-0 (Renal cancer)): 2.97 µM
GI50 (OVCAR-8 (Ovarian cancer)): 1.16 µM
IC (TGI) (OVCAR-8 (Ovarian cancer)): 2.8 µM
CC50 (OVCAR-8 (Ovarian cancer)): > 50 µM
GI50 (SF-268 (CNS cancer)): 1.22 µM
IC (TGI) (SF-268 (CNS cancer)): 2.69 µM
CC50 (SF-268 (CNS cancer)): 14.8 µM
EC50 (MCF-7 (breast carcinoma)): 2.05 ± 0.2 µM
EC50 [1]: 3.3 ± 0.2 µM
EC50 [2]: 2.95 ± 0.4 µM
EC50 [3]: 1.84 ± 0.2 µM
EC50 [4]: 2.97 ± 0.2 µM
GI50 [5]: 0.91 µM
IC (TGI) [5]: 1.71 µM
CC50 [5]: 3.19 µM
GI50 (ACHN (Renal cancer)): 1.42 µM
IC (TGI) (ACHN (Renal cancer)): 3.4 µM
CC50 (ACHN (Renal cancer)): 17 µM
IC (TGI) (OVCAR-4 (Ovarian cancer)): 2.85 µM
GI50 (OVCAR-4 (Ovarian cancer)): 0.86 µM
CC50 (OVCAR-4 (Ovarian cancer)): 25 µM
GI50 (BT-549 (Breast cancer)): 2.56 µM
IC (TGI) (BT-549 (Breast cancer)): 9.23 µM
CC50 (BT-549 (Breast cancer)): 23.3 µM
IC (TGI) (Breast cancer subpanel): 3.62 µM
GI50 (Breast cancer subpanel): 1.28 µM
CC50 (Breast cancer subpanel): 16.9 µM
GI50 (SK-MEL-5 (Melanoma)): 0.91 µM
IC (TGI) (SK-MEL-5 (Melanoma)): 1.65 µM
CC50 (SK-MEL-5 (Melanoma); SK-MEL-5, read-out: LC50): 3 µM
GI50 (MDA-MB-435 (Melanoma)): 0.95 µM
IC (TGI) (MDA-MB-435 (Melanoma)): 1.81 µM
CC50 (MDA-MB-435 (Melanoma)): 3.45 µM
IC (TGI) (Melanoma subpanel): 3.3 µM
GI50 (Melanoma subpanel): 1.54 µM
CC50 (Melanoma subpanel): 7.68 µM
GI50 [6]: 1.04 µM
IC (TGI) [6]: 2.17 µM
CC50 ([6]; NCI-H522, read-out: LC50): 4.54 µM
GI50 [7]: 0.82 µM
IC (TGI) [7]: 1.66 µM
CC50 [7]: 3.36 µM
GI50 [8]: 1.34 µM
IC (TGI) [8]: 4 µM
CC50 [8]: 17.5 µM
GI50 (SF-539 (CNS cancer)): 0.95 µM
IC (TGI) (SF-539 (CNS cancer)): 1.73 µM
CC50 (SF-539 (CNS cancer)): 3.17 µM

C=C(C)[C@@H]1CC[C@]2(C)[C@H](C=CC3=C4C[C@@](C)(CO)CC[C@]4(C)CC[C@]32C)[C@@]1(C)CCCN [Compound 20]
GI50 (UACC-257 (Melanoma)): 1.82 µM
IC (TGI) (UACC-257 (Melanoma)): 3.65 µM
CC50 (UACC-257 (Melanoma)): 7.14 µM
IC (TGI) (NSC lung cancer subpanel): 3.38 µM
GI50 (NSC lung cancer subpanel): 1.71 µM
CC50 (NSC lung cancer subpanel): 6.24 µM
GI50 (HCC-2998 (Colon cancer)): 0.79 µM
IC (TGI) (HCC-2998 (Colon cancer)): 2.14 µM
CC50 (HCC-2998 (Colon cancer)): 4.97 µM
Growth % of the Most Sensitive Cell Lines (786-0 (Renal cancer); 786-0, 1 dose 10 µM): −97.28%
GI50 (786-0 (Renal cancer)): 1.68 µM
IC (TGI) (786-0 (Renal cancer)): 3.44 µM
CC50 (786-0 (Renal cancer)): 7.04 µM
GI50 (OVCAR-8 (Ovarian cancer)): 2.13 µM
IC (TGI) (OVCAR-8 (Ovarian cancer)): 4.61 µM
CC50 (OVCAR-8 (Ovarian cancer)): 10 µM
GI50 (SF-268 (CNS cancer)): 1.61 µM
IC (TGI) (SF-268 (CNS cancer)): 3.25 µM
CC50 (SF-268 (CNS cancer)): 6.56 µM
EC50 (MCF-7 (breast carcinoma)): 2.84 ± 0.2 µM
EC50 [1]: 4.35 ± 0.2 µM
EC50 [2]: 2.66 ± 0.2 µM
EC50 [3]: 1.88 ± 0.3 µM
EC50 [4]: 3.13 ± 0.1 µM
GI50 [5]: 1.71 µM
IC (TGI) [5]: 3.33 µM
CC50 [5]: 6.49 µM
Growth % of the Most Sensitive Cell Lines (ACHN (Renal cancer); 1 dose 10 µM): −94.94%
GI50 (ACHN (Renal cancer)): 1.76 µM
IC (TGI) (ACHN (Renal cancer)): 3.14 µM
CC50 (ACHN (Renal cancer)): 5.6 µM
IC (TGI) (OVCAR-4 (Ovarian cancer)): 3.09 µM
GI50 (OVCAR-4 (Ovarian cancer)): 1.53 µM
CC50 (OVCAR-4 (Ovarian cancer)): 6.23 µM
GI50 (BT-549 (Breast cancer)): 1.64 µM
IC (TGI) (BT-549 (Breast cancer)): 3.07 µM
CC50 (BT-549 (Breast cancer)): 5.78 µM
IC (TGI) (Breast cancer subpanel): 3.41 µM
GI50 (Breast cancer subpanel): 1.68 µM
CC50 (Breast cancer subpanel): 6.94 µM
GI50 (SK-MEL-5 (Melanoma)): 1.72 µM
IC (TGI) (SK-MEL-5 (Melanoma)): 3.19 µM
GI50 (MDA-MB-435 (Melanoma)): 1.78 µM
IC (TGI) (MDA-MB-435 (Melanoma)): 3.2 µM
CC50 (MDA-MB-435 (Melanoma)): 5.76 µM
Growth % of the Most Sensitive Cell Lines (MDA-MB-435 (Melanoma); MDA-MB-435, 1 dose 10 µM): −96.77%
IC (TGI) (Melanoma subpanel): 3.22 µM
GI50 (Melanoma subpanel): 1.71 µM
CC50 (Melanoma subpanel): 6.09 µM
GI50 [6]: 1.83 µM
IC (TGI) [6]: 3.63 µM
GI50 [7]: 1.58 µM
IC (TGI) [7]: 3.2 µM
CC50 [7]: 6.47 µM
GI50 [8]: 1.77 µM
IC (TGI) [8]: 3.32 µM
CC50 [8]: 6.24 µM
GI50 (SF-539 (CNS cancer)): 1.73 µM
IC (TGI) (SF-539 (CNS cancer)): 3.13 µM
CC50 (SF-539 (CNS cancer)): 5.67 µM
